The values below come from publication PMC5880808, “A lever-like transduction pathway for long-distance chemical- and mechano-gating of the mechanosensitive Piezo1 channel” (Nature Communications, 2018).

For series [1], the system named is mPiezo1 mutants L1342A/L1345A; L1342D/L1345D; L1342S/L1345S; L1342A; L1345A. Nature of the series: Single-cell Ca2+ imaging or FLIPR, L1342/L1345 mutants. Type of series: cell-based, mouse. As to conditions: all five mutants, 1 mM Jedi1, 30 μM Yoda1. Here is the method: HEK293T cells were grown in Dulbecco’s modified Eagle medium containing 4.5 mg/ml glucose, 10% fetal bovine serum, and 1% penicillin/streptomycin. Cells were seeded in 50 μg/ml poly-D-lysine-coated 96-well plates (3 × 10^4 cells/well) and allowed to grow for about 18 h, and then co-transfected with a total of 250 ng cDNA containing Piezo1 or Piezo2 and GCaMP6s using Lipofectamine 2000 (Invitrogen, Life Technology). Two days after transfection the cells were washed with buffer containing 1× Hanks’ balanced salt solution (HBSS; 1.3 mM Ca^2+) and 10 mM HEPES (pH 7.2). The 96-well plates were then transferred to the FLIPR Tetra (Molecular Device) for monitoring the GCAMP6s fluorescence before and after addition of the compounds that were prepared in separate compound plates. […]
Fura-2 single-cell Ca^2+ imaging was performed according to the previous protocol. […] The coverslip was mounted into an inverted Nikon-Tie microscope equipped with a CoolSNAP charge-coupled devise (CCD) camera and Lambda XL light box (Sutter Instrument), and mCherry-positive and -negative cells were selected for measurement of the 340/380 ratio with a ×20 objective (numerical aperture 0.75) using the MetaFluor Fluorescence Ratio Imaging software (Molecular Device).

Details of series [2]: method as in PMID 26001275. As to conditions: up; cited from earlier work.
For series [3], the target named is T1, mPiezo1 (Mus musculus, UniProt E2JF22).
T1 construct: The full-length mPiezo1 has 2547 amino acids in each monomer; expressed in transfected cells; host or cells: HEK293T
T1 sequence (E2JF22 whole entry): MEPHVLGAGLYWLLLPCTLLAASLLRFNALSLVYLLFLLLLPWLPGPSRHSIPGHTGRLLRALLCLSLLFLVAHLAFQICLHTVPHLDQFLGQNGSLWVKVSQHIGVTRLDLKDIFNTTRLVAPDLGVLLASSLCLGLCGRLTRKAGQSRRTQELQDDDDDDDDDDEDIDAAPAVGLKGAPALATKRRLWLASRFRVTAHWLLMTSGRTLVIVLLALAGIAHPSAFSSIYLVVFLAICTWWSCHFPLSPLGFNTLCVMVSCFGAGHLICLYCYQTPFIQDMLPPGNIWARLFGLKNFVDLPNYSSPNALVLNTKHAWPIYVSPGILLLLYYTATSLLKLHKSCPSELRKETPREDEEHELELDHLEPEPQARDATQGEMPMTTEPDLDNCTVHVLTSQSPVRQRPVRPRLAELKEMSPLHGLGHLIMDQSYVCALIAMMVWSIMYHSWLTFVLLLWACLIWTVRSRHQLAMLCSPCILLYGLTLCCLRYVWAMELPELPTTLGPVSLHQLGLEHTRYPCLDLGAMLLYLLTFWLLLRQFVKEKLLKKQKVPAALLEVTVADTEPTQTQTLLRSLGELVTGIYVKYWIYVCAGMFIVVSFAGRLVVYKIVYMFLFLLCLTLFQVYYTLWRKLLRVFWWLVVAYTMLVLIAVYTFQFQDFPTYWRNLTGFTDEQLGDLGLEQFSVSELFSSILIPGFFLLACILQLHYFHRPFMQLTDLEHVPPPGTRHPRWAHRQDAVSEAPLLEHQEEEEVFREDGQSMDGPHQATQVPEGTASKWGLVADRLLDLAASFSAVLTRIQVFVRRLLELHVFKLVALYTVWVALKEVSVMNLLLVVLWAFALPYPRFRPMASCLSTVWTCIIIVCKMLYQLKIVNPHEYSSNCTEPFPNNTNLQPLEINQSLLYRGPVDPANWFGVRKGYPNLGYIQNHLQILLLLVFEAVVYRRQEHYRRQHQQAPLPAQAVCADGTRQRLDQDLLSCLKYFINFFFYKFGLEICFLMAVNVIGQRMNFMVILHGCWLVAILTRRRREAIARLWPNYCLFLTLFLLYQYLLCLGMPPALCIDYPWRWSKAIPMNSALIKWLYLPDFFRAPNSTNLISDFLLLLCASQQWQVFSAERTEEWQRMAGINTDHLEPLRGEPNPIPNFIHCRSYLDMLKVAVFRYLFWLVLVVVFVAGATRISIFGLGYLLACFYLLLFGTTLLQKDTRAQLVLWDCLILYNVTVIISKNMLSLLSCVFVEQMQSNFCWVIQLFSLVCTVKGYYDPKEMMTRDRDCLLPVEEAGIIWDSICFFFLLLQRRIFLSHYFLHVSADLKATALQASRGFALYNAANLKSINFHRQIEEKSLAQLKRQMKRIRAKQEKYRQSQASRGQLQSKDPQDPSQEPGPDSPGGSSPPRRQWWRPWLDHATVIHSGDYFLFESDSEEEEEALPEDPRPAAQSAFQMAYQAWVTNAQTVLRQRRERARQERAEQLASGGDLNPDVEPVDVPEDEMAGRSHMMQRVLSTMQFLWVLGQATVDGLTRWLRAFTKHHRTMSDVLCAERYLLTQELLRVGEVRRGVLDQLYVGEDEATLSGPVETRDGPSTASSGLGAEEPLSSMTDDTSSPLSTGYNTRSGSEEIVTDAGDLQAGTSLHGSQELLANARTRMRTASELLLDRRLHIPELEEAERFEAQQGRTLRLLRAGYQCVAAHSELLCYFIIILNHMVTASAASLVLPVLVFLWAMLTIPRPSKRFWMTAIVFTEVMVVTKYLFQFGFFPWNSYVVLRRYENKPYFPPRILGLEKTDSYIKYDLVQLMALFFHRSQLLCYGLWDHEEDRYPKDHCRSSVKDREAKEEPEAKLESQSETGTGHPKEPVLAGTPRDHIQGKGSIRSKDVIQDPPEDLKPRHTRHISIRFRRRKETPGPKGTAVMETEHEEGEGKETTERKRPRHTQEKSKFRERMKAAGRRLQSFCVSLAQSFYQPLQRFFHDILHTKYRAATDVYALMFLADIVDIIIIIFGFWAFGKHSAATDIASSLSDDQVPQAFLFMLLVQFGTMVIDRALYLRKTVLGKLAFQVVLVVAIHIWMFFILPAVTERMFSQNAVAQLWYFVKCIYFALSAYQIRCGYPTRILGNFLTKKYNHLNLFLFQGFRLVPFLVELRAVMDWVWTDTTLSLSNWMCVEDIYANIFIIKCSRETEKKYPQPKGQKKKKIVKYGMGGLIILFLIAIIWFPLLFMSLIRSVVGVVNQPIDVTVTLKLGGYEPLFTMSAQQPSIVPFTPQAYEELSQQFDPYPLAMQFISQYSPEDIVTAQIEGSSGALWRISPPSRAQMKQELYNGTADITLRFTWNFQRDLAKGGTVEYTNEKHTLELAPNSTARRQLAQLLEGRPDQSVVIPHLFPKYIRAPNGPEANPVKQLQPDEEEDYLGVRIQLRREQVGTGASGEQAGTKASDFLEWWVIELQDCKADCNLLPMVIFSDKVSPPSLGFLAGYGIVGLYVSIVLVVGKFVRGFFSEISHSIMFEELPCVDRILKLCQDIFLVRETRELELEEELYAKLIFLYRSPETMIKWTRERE
Nature of the series: Whole-cell patch clamp, gap-free recording, compound puffed onto cells. Type of series: cell-based. As to conditions: for compound-evoked whole-cell current: mPiezo1-mRuby2-expressing HEK293T, 1 mM Jedi1 or 30 μM Yoda1 puffed. Here is the method:
Protocols for HEK293T cell culture, transient transfection, and patch-clamp experiments with an Axopatch 200B amplifier (Axon Instruments) or HEKA EPC10 were essentially similar to how previously described[6],[8]. […] The extracellular solution was composed of (in mM) 133 NaCl, 3 KCl, 2.5 CaCl2, 1 MgCl2, 10 HEPES (pH 7.3 with NaOH), and 10 glucose. All experiments were carried out at room temperature. Currents were sampled at 20 kHz, filtered at 2 kHz using the Clampex 10.4 software (Axon Instruments) or Patchmaster software. Leak currents before mechanical stimulations were subtracted offline from the current traces.
Stock solutions of Jedi1 (100 mM), Jedi2 (100 mM), and Yoda1 (30 mM) were solubilized in DMSO and diluted to the desired final concentrations as indicated in the figure legends using external or internal solutions. In Figs. 3a, 5b, and 6e, the compound solutions were puffed onto the cells using a multichannel perfusion system (MPS-2, World Precision Instruments) while continuously recording using a gap-free mode. In other conditions, the compounds were directly added to the recording chamber or pipette solution, and the currents were recorded within 10 min. In Figs. 5b and 6e, we used the Piezo1-KO-HEK cell line in which the endogenous Piezo1 gene is disrupted.

The subject of series [4] is mPiezo1 loop deletion mutants ΔL15-16 (657-677) and ΔL19-20 (870–921). Also noted: method as in PMID 29469092. As to conditions: ΔL15-16 and ΔL19-20; cited from earlier work.
Series [5] concerns Piezo1. Also noted: method as in PMID 26001275. As to conditions: read-out: estimated EC50; cited from earlier work.
For series [6], the system named is mPiezo1 loop deletion mutants ΔL15-16 (657-677) and ΔL19-20 (870–921). Details: method as in PMID 29469092. As to conditions: ΔL15-16 and ΔL19-20; cited from earlier work. The source holds these as a separate data set.
The target in series [7] is T1, mPiezo1. Description: FLIPR GCAMP6s Ca2+ response of transfected HEK293T cells. Format: cell-based. As to conditions: for EC50: Boltzmann fit, vector signal subtracted. The text has this: Pharmacological compounds are invaluable tools for probing the structure-function relationship of ion channels. To identify specific chemical activators of Piezo channels, we have used the fluorescent imaging plate reader (FLIPR) in a 96-well format to screen about 3000 compounds for those that can evoke Ca^2+ increase in human embryonic kidney 293T (HEK293T) cells co-transfected with either mPiezo1 or mPiezo2, and the genetically encoded Ca^2+ reporter GCAMP6s (high Ca^2+ sensitivity but slow kinetics)[43]. We initially selected compounds that evoked Ca^2+ response in either Piezo1- or Piezo2-transfected cells and subsequently ruled out those nonspecific hits that caused Ca^2+ response in Piezo1-, Piezo2-, and vector-transfected cells (Fig. 2a). Eventually, we identified Jedi1 and Jedi2 as Piezo1 chemical activators, but no specific Piezo2 activators.
(§1) HEK293T cells were grown in Dulbecco’s modified Eagle medium containing 4.5 mg/ml glucose, 10% fetal bovine serum, and 1% penicillin/streptomycin. Cells were seeded in 50 μg/ml poly-D-lysine-coated 96-well plates (3 × 10^4 cells/well) and allowed to grow for about 18 h, and then co-transfected with a total of 250 ng cDNA containing Piezo1 or Piezo2 and GCaMP6s using Lipofectamine 2000 (Invitrogen, Life Technology). Two days after transfection the cells were washed with buffer containing 1× Hanks’ balanced salt solution (HBSS; 1.3 mM Ca^2+) and 10 mM HEPES (pH 7.2). The 96-well plates were then transferred to the FLIPR Tetra (Molecular Device) for monitoring the GCAMP6s fluorescence before and after addition of the compounds that were prepared in separate compound plates. For the initial screening, we screened about 3000 compounds derived from either the chemical library collected in Dr. Yu Rao’s lab, which is composed of different classes of heterocycles, including various drug scaffold or the Maybridge Ro3 Diversity Fragment Library purchased from Maybridge (Cambridge, UK), which consists of 2500 fragment compounds with a molecular weight below 350 and high rule of three compliance. Each compound was tested at a final concentration of 200 μM. Approximately 20 positive hits were selected for further testing in Piezo1-, Piezo2-, or vector-transfected cells. For subsequent characterizations, Jedi1 was purchased from the company of Alfa Aesar, while Jedi2 and Yoda1 were synthesized in the laboratories of Drs. Wei He and Liansuo Zu, respectively. See the Supplementary Experiment Procedures for the chemical synthesis. The dose response measurement by FLIPR was similar to previously described.

Series [8] relates to mPiezo1 loop deletion mutants ΔL15-16 (657-677) and ΔL19-20 (870–921). Nature of the series: FLIPR GCAMP6s Ca2+ dose response, loop deletion mutants. Format: cell-based, mouse. As to conditions: ΔL15-16 and ΔL19-20, FLIPR. On the procedure:
as §1, with “For subsequent characterizations, Jedi1 was purchased from the company of Alfa Aesar, while Jedi2 and Yoda1 were synthesized in the laboratories of Drs. Wei He and Liansuo Zu, respectively. See the Supplementary Experiment Procedures for the chemical synthesis. The dose response measurement by FLIPR was similar to previously described.” left out

Series [9] has as its target T2, Human Piezo1 (hPiezo1) (Homo sapiens, UniProt Q92508).
T2 construct: expressed in transfected cells; host or cells: HEK293T
Nature of the series: Fura-2 single-cell Ca2+ imaging of hPiezo1-expressing cells. Format: cell-based. On the procedure:
Fura-2 single-cell Ca^2+ imaging was performed according to the previous protocol. In brief, mCherry-Piezo1 cDNA (1 μg)-transfected HEK293T cells were plated onto 12-mm round glass coverslips, which were coated with poly-D-lysine and placed in 24-well plates, and subject to Fura-2 single-cell Ca^2+ imaging about 36 h post transfection. Cells were washed with buffer containing 1× HBSS (1.3 mM Ca^2+) and 10 mM HEPES (pH 7.2), incubated with 2.5 μM Fura-2 and 0.05% Pluronic F-127 (Life Technologies) for 30 min, then washed again with the previously mentioned buffer. The coverslip was mounted into an inverted Nikon-Tie microscope equipped with a CoolSNAP charge-coupled devise (CCD) camera and Lambda XL light box (Sutter Instrument), and mCherry-positive and -negative cells were selected for measurement of the 340/380 ratio with a ×20 objective (numerical aperture 0.75) using the MetaFluor Fluorescence Ratio Imaging software (Molecular Device).

T2 sequence (Q92508 whole entry): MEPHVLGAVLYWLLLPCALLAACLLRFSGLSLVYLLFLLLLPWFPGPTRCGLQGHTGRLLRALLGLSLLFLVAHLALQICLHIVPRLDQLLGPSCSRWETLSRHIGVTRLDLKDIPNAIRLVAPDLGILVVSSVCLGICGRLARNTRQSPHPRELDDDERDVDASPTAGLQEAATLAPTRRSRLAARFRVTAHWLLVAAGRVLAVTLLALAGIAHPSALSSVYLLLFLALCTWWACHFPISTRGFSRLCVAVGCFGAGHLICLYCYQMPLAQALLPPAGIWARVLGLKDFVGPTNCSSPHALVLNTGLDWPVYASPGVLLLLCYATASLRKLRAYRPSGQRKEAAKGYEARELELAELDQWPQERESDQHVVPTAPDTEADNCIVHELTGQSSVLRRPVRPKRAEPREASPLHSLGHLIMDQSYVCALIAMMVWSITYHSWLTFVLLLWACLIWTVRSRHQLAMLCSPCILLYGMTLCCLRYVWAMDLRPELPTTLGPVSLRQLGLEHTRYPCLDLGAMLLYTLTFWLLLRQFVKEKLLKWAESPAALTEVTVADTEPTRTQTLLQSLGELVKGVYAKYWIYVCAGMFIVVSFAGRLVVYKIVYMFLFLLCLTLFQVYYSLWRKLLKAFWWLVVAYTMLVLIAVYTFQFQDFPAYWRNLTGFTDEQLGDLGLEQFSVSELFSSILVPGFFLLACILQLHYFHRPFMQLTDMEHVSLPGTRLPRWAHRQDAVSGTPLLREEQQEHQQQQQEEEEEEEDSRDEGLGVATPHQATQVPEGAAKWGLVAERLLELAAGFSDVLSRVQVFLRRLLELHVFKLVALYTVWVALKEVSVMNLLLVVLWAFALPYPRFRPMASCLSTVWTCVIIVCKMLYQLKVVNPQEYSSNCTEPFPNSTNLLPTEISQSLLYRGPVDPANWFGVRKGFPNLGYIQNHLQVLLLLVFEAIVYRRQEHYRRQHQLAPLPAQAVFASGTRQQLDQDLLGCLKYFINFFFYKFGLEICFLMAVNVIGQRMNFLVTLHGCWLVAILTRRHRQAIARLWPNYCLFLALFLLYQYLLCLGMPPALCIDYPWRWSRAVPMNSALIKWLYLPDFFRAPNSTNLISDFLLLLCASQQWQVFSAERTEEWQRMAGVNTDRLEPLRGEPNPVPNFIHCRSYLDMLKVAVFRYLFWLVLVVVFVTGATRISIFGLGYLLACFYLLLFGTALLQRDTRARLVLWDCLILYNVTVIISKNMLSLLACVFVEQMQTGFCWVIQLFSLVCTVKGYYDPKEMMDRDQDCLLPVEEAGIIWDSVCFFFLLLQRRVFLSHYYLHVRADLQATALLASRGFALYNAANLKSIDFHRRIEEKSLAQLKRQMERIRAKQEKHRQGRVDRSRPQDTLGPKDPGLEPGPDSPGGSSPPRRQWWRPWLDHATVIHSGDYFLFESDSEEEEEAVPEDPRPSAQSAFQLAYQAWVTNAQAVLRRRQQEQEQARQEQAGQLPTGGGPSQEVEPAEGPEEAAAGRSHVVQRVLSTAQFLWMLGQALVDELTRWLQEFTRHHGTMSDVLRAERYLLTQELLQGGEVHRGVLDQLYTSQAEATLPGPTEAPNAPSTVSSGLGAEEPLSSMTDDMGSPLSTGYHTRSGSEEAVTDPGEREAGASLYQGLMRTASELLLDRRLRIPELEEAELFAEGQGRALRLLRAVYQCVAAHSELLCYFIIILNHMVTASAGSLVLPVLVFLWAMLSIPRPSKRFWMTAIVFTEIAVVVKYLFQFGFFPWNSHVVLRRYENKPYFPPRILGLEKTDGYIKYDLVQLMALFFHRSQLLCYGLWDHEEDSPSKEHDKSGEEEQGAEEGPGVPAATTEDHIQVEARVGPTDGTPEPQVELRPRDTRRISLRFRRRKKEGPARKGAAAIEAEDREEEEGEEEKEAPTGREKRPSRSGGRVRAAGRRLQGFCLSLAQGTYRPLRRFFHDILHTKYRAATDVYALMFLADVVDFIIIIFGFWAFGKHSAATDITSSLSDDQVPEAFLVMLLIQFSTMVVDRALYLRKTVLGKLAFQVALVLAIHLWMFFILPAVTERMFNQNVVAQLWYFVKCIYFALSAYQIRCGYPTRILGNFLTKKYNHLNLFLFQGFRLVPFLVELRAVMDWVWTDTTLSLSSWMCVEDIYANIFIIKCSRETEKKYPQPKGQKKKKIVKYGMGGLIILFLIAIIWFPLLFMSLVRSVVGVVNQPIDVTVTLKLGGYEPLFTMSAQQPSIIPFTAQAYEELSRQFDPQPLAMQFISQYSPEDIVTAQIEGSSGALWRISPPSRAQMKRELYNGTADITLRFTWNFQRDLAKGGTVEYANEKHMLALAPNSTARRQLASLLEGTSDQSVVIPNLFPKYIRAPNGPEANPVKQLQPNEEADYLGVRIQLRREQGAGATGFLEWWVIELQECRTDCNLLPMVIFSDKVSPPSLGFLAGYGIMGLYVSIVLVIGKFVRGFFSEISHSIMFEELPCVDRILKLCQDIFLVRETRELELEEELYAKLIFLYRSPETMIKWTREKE

For the compound `Clc1cccc(Cl)c1CSc1nnc(-c2cnccn2)s1` [Yoda1, reference compound], the “compound-evoked Ca2+ responses of L1342/L1345 mutants” value in series [1] was “completely lost”. In addition, the water solubility in series [2] is ~ 30 μM. Further, the compound-evoked whole-cell current result in series [3] is “evoked inward currents”. In addition, the “ability to potentiate poking-induced currents of loop deletion mutants” value in [4] is “retained its ability”. Moreover, the EC50 in [5] was ~17.1 µM. In addition, the “ability to evoke Ca2+ responses in loop deletion mutants” value in series [6] is “retained its ability”.

In series [7], `Cc1oc(-c2cccs2)cc1C(=O)O` [Jedi2] had a Hill coefficient of 1.6 and an EC50 of 158 µM. Besides, the “Ca2+ response of loop deletion mutants” value in [8] is “no dose-dependent Ca^2+ responses”.

In the case of `Cc1oc(-c2ccccc2)cc1C(=O)O` [Jedi1], the “Ca2+ response (Fura-2)” value in series [9] is listed as “responded to Jedi1 as well”. Moreover, in series [7], the Hill coefficient was ~ 1.5 and the EC50 is ~200 µM. Further, in [1], the “compound-evoked Ca2+ responses of L1342/L1345 mutants” value is “completely lost”. For the same compound, the “Ca2+ response of loop deletion mutants” value in [8] is listed as “no dose-dependent Ca^2+ responses”. Also, the “onset and decay of evoked currents relative to Yoda1-induced currents” value in [3] (1 mM Jedi1 vs 30 μM Yoda1) was “more rapid onset and faster decay”. Moreover, in series [3], the compound-evoked whole-cell current entry is reported as “evoked inward currents”.
